Laboratory results: patent publication US12121505B2, “Fap-activated therapeutic agents, and uses related thereto” (BACH BIOSCIENCES, LLC, priority 2014, dated 2024)
Read-outs that look alike come from different tables or passages of the source. Each block holds one molecule with its values, some of them ahead of it.

What was measured:
FAP [1] = biological target: T1, FAP (Homo sapiens, UniProt Q12884); format: biochemical; settings: 1.34×10^−8 M FAP, 37° C.
T1 sequence (Q12884 1-760): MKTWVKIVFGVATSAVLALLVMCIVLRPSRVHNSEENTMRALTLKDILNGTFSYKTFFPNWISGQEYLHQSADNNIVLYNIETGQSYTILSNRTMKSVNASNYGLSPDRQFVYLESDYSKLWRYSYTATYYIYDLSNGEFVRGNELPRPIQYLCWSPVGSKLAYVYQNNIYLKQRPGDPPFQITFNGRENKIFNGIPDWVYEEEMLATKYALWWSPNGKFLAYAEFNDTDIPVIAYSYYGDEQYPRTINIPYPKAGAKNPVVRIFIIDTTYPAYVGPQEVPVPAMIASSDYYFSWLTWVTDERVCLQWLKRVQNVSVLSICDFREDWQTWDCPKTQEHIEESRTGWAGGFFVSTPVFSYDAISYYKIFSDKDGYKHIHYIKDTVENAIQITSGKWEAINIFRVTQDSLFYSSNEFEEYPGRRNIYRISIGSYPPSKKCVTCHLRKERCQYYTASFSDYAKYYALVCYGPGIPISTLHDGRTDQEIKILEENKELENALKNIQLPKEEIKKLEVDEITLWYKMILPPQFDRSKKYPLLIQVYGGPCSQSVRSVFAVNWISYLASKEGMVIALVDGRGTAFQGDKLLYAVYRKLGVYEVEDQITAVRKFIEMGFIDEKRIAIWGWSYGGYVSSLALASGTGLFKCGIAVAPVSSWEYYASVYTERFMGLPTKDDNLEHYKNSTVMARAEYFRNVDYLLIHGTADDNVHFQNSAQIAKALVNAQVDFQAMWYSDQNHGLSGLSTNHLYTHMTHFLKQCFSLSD
Protocol: Michaelis-Menten enzyme kinetics for FAP were measured using a SpectraMax M2e microplate reader (Molecular Devices, Sunnyvale, CA, USA). The assays were performed in FAP buffer (50 mM […], 140 mM NaCl, pH 7.5) at 25° C., and the fluorescence continuously monitored at excitation and emission wavelengths of 380 and 460 nm, respectively. Kinetic constants (kcat and Km) were determined using GP-AMC (Bachem, Torrance, CA, USA), Ac-(D)-AP-AFC (MP Biomedicals, Solon, OH, USA) and test article concentrations equivalent to 0.1-5 times their respective Km values, and with 5-10 nM enzyme. All assays were performed in triplicate, and the results were calculated with a nonlinear regression analysis, relying on a Michaelis-Menten curve fit using GraphPad software.
(§1) 3099DOX at various concentrations ranging from 8.5×10^−6 M to 6.9×10^−4 M was incubated with 1.34×10^−8 M FAP or PREP at 37° C., and released doxorubicin measured.

PREP [2] = biological target: T2, PREP (Homo sapiens, UniProt P48147); experiment: Specificity of activation: 24 h digestion with PREP; format: biochemical; settings: 100 μM prodrug, 37° C.
T2 sequence (P48147 1-710): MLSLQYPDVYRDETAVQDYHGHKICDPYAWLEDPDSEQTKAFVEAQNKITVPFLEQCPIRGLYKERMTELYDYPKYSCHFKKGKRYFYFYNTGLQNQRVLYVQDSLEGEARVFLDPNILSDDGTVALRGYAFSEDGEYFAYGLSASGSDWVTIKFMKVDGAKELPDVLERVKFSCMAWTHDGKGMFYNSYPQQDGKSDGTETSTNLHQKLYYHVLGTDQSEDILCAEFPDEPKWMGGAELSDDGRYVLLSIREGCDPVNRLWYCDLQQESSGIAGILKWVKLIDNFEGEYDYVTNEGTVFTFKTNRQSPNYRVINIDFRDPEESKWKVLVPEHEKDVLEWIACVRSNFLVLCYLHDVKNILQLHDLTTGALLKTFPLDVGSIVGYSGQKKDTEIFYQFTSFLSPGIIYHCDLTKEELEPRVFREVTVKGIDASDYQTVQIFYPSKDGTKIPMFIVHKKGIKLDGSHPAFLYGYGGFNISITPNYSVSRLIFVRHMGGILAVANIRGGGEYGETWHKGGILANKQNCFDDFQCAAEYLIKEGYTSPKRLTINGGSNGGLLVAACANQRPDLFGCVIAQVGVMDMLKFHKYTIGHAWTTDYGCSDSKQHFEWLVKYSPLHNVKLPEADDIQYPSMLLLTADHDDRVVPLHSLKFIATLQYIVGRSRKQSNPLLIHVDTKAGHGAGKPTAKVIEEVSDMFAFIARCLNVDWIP
Protocol: (§2) Total doxorubicin was measured for each assay.

FAP [3] = biological target: T1, FAP; experiment: Specificity of activation: 24 h digestion with FAP; format: biochemical; settings: 100 μM prodrug, 37° C.
Protocol: as §2

[4] = 100 μM prodrug, 37° C., 12 h
PREP [5] = biological target: T2, PREP; format: biochemical; settings: 1.34×10^−8 M PREP, 37° C.
Protocol: as §1

FAP [6] = biological target: T1, FAP; experiment: Rate of recombinant FAP activity on doxorubicin prodrugs; settings: 37° C.
[7] = format: physicochemical
Protocol: • (i) LCMS of compound 3099DOX. • 0-3 min: 2% B; 3-20 min: 2-98% B; 20-25 min: 98% B. • Ran with 1.8 μm particle size column on the Old LCMS. • Calc.

FAP [8] = biological target: T1, FAP; experiment: FAP digest of 5057DOX (kinetics); format: biochemical
FAP [9] = biological target: T1, FAP; experiment: Selectivity of FAP over PREP (5057DOX digest, LCMS); format: biochemical; settings: FIG. 14; 240 nM 5057DOX, 12, 24 or 48 nM enzyme, 37° C.
Protocol: Recombinant enzyme (FAP or PREP) was combined, at reaction concentration of 12 nM, 24 nM, or 48 nM, with 240 nM 5057DOX in FAP buffer (50 mM Tris-HCl, pH 7.4, 140 mM NaCl) and incubated at 37° C. Reactions were stopped at 0, 10, 20, or 30 minutes by addition of equal volume of 10 μM Val-boroPro (FAP inhibitor). Doxorubicin was measured by liquid chromatography/mass spectroscopy (LCMS).

PREP [10] = biological target: T2, PREP; experiment: In vitro PREP inhibition assay; format: biochemical
DPPII = DPPII (Homo sapiens, UniProt Q9UHL4); experiment: In vitro DPPII inhibition assay; format: biochemical
FAP [11] = biological target: T1, FAP; experiment: In vitro FAP inhibition assay; format: biochemical
DPP9 = DPP9 (Homo sapiens, UniProt Q86TI2); experiment: In vitro DPP9 inhibition assay; format: biochemical
Chain of DPP9 (Q86TI2 whole entry, species assumed): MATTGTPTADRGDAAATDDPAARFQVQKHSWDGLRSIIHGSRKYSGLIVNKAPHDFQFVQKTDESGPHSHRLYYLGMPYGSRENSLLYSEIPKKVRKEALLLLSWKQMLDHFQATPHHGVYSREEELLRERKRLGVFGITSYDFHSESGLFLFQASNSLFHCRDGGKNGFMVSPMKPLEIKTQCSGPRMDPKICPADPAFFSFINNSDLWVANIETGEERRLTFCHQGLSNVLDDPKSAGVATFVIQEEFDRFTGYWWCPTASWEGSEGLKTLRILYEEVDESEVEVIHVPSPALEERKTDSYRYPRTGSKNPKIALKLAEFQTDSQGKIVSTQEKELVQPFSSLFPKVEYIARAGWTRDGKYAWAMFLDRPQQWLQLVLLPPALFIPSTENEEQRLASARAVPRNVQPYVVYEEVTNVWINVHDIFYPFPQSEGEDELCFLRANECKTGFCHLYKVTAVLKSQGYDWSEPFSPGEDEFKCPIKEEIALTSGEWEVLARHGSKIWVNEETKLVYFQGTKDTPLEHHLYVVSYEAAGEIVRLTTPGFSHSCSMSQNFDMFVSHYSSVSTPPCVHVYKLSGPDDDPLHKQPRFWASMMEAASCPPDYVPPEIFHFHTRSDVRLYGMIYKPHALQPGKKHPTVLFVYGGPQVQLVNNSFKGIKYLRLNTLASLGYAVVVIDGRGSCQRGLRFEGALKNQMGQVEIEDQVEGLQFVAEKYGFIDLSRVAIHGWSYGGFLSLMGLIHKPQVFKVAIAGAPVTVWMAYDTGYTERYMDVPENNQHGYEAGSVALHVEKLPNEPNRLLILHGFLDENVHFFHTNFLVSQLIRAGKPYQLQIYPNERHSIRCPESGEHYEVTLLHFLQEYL

DPPIV = DPPIV (Homo sapiens, UniProt P27487); experiment: In vitro DPPIV inhibition assay; format: biochemical
Chain of DPPIV (P27487 whole entry, species assumed): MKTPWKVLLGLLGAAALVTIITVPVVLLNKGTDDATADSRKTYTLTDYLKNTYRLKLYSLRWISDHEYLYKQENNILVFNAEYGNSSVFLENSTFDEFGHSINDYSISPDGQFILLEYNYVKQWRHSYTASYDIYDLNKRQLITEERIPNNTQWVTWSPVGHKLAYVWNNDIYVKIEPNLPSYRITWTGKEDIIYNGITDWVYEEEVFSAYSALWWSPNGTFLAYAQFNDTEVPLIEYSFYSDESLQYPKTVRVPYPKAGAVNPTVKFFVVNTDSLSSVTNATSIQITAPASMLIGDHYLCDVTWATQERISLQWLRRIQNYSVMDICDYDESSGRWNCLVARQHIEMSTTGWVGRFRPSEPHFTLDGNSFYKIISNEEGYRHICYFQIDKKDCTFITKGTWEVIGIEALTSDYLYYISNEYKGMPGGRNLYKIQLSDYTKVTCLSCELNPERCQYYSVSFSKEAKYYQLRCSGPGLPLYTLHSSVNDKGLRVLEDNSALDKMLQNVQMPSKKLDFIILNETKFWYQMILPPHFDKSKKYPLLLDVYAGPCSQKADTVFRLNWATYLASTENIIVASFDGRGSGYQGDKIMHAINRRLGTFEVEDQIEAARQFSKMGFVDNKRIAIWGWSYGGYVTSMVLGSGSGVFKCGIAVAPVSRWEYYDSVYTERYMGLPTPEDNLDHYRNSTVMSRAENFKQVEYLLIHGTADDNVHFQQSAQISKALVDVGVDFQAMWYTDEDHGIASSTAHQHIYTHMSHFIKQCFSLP

DPP8 = DPP8 (Homo sapiens, UniProt Q6V1X1); experiment: In vitro DPP8 inhibition assay; format: biochemical
Chain of DPP8 (Q6V1X1 whole entry, species assumed): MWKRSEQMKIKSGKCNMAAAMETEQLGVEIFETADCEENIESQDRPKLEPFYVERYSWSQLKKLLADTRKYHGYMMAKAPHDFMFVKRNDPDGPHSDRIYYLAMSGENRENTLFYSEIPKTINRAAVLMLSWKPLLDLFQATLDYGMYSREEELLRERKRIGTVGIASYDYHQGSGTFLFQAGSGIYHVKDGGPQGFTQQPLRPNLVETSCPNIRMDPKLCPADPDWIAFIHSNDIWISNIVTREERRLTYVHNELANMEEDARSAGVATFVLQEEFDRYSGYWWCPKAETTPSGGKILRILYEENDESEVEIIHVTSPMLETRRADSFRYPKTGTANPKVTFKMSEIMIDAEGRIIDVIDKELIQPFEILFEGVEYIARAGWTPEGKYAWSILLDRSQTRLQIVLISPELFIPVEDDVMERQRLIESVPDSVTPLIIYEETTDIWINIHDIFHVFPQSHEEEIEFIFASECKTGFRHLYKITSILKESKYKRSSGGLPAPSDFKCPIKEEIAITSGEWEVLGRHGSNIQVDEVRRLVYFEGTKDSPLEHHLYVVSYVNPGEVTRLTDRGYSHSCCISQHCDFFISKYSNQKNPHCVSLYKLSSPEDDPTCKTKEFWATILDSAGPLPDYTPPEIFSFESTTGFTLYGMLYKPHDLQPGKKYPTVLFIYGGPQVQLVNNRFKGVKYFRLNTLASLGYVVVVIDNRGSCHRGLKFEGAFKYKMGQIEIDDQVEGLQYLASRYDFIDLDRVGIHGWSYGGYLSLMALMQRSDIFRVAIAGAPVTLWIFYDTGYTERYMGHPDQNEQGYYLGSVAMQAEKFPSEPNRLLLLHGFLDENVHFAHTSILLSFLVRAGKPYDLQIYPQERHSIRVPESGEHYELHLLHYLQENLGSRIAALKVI

[12] = biological target: dipeptidyl peptidase IV (DPP IV) (Homo sapiens, UniProt P27487); experiment: Specificity of activation: 24 h digestion with DPP IV; format: biochemical; settings: 100 μM prodrug, 37° C.
Chain of dipeptidyl peptidase IV (DPP IV) (P27487 whole entry, species assumed): as the sequence (P27487 whole entry, species assumed) above
Protocol: as §2

Compound: COc1cccc2c1C(=O)c1c(O)c3c(c(O)c1C2=O)C[C@@](O)(C(=O)CO)C[C@@H]3O[C@H]1C[C@H](NC(=O)[C@@H]2CCCN2C(=O)[C@@H](C)NC(=O)c2ccncc2)[C@H](O)[C@H](C)O1 [Compound 3099DOX]
- Km (FAP [1]): 11.2 µM
- kcat(Vmax/[E]) (FAP [1]): 0.44 s⁻¹
- Vmax (FAP [1]; released doxorubicin): 5.877e-09 M/s
- doxorubicin released by PREP (PREP [2]): neither PREP nor DPP IV
- doxorubicin released by FAP (FAP [3]): released from 3099DOX by FAP
- doxorubicin released in mouse muscle lysate [4]: released essentially no doxorubicin
- activation with PREP (PREP [5]): essentially no activation with PREP
- time to reach maximum free doxorubicin (FAP [6]): approximately 8 h
- Remaining Purity % ([7]; 22° C./72% RH, 1 month): 99.5%
- Remaining Purity % ([7]; 22° C./72% RH, 1 week): 99.3%
- Remaining Purity % ([7]; 22° C./72% RH, 2 month): 98.1%
- Remaining Purity % ([7]; 22° C./72% RH, 3 month): 97.5%
- Remaining Purity % ([7]; 22° C./72% RH, Day 0): 99.4%
- Remaining Purity % ([7]; 40° C./75% RH, 1 month): 98.8%
- Remaining Purity % ([7]; 40° C./75% RH, 1 week): 99.3%
- Remaining Purity % ([7]; 40° C./75% RH, 2 month): 96.3%
- Remaining Purity % ([7]; 40° C./75% RH, 3 month): 95.3%
- Remaining Purity % ([7]; 40° C./75% RH, Day 0): 99.4%

- Km (FAP [8]; assay 6, [FAP] 4.00 × 10^−9M): 11.1 µM
- Vmax (FAP [8]; assay 6, [FAP] 4.00 × 10^−9M): 5.19e-09 M/s
- kcat(Vmax/[E]) (FAP [8]; assay 6, [FAP] 4.00 × 10^−9M): Kcat(Vmax/[E]) 1.30 sec^−1
- Kcat (FAP [8]; assay 7, [FAP] 1 nM): Kcat 0.98 sec^−1
- Km (FAP [8]; assay 7, [FAP] 1 nM): 4.85 µM
- Vmax (FAP [8]; assay 7, [FAP] 1 nM, Dox standards, Daunorubicin internal standard): Vmax 9.80 × 10^−9M/sec
Compound: COc1cccc2c1C(=O)c1c(O)c3c(c(O)c1C2=O)C[C@@](O)(C(=O)CO)C[C@@H]3O[C@H]1C[C@H](NC(=O)[C@@H]2CC(F)(F)CN2C(=O)CNC(=O)c2ccnc3ccccc23)[C@H](O)[C@H](C)O1 [Compound 5057DOX]
- activation by FAP as compared to PREP (FAP [9]): selectively activated by FAP as compared to PREP

- IC50 (PREP [10]): 15 nM
- IC50 (DPPII): 24000 nM
- IC50 (FAP [11]): 110 nM
- IC50 (DPP9): 2600 nM
- IC50 (DPPIV): 860 nM
- IC50 (DPP8): 7300 nM
Compound: CC(C)[C@H](NC(=O)OCc1ccc(NC(=O)[C@@H]2CC(F)(F)CN2C(=O)CNC(=O)c2ccnc3ccccc23)cc1)C(=O)N1CCC[C@H]1B(O)O [Compound 5181]

Compound: COc1cccc2c1C(=O)c1c(O)c3c(c(O)c1C2=O)C[C@@](O)(C(=O)CO)C[C@@H]3O[C@H]1C[C@H](NC(=O)[C@@H]2CCCN2C(=O)CNC(=O)OCc2ccccc2)[C@H](O)[C@H](C)O1 [z-GP-DOX, reference compound]
- doxorubicin released by PREP (PREP [2]): A similar amount of doxorubicin was released from z-GP-DOX by FAP and PREP
- doxorubicin released by FAP (FAP [3]): A similar amount of doxorubicin was released from z-GP-DOX by FAP and PREP
- doxorubicin released in mouse muscle lysate [4]: released a large amount of doxorubicin
- doxorubicin released by DPP IV [12]: essentially none by DPP IV
